Reference: PubChem BioAssay AID651991 (The Scripps Research Institute Molecular Screening Center, 2013)
The source made the active and inactive calls.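 How the source made its calls: active means CC50 at or below 10 µM in either panel, but not in both panels; inactive means the rest.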

Assay: viability loss in HEK293T cells – cell-based, WST-1 absorbance, serum-free and serum medium, cytotoxicity control for LYPLA1/LYPLA2 inhibitor project, dose response (AID 651991)
Details: 48 h

COc1ccc(N2CCN(C(=O)c3cc4c(s3)-c3ccccc3S(=O)(=O)C4)CC2)cc1
CC50 (with 10% FCS): > 50 µM (inactive)
CC50 (without serum): > 50 µM (inactive)

O=C(CN1CCN(C(=O)c2ccco2)CC1)Nc1cc(Cl)ccc1Cl
CC50 (with 10% FCS): > 50 µM (inactive)
CC50 (without serum): > 50 µM (inactive)

O=C(c1cc2c(s1)-c1ccccc1S(=O)(=O)C2)N1CCN(c2ccc(Cl)cc2)CC1
CC50 (with 10% FCS): > 50 µM (inactive)
CC50 (without serum): > 50 µM (inactive)

O=C(CN1CCN(C(=O)c2ccco2)CC1)Nc1cc(C(F)(F)F)ccc1Cl
CC50 (with 10% FCS): > 50 µM (inactive)
CC50 (without serum): > 50 µM (inactive)
